Source: paper PMC7661129, “Evaluation of Binding of Rosmarinic Acid with Human Transferrin and Its Impact on the Protein Structure: Targeting Polyphenolic Acid-Induced Protection of Neurodegenerative Disorders” (Oxidative Medicine and Cellular Longevity, 2020)

Columns and labels:
Human transferrin (hTf) [1] = molecular target: T1, Human transferrin (hTf) (Homo sapiens, UniProt P02787); experiment: intrinsic fluorescence quenching, modified Stern-Volmer; format: binding; details: 301 K; 20 mM sodium phosphate pH 7.4; n = 1.25; double-log
T1 construct: gene TF
Excerpt: intrinsic fluorescence quenching, modified Stern-Volmer on Human transferrin (hTf)

Human transferrin (hTf) [2] = molecular target: T1, Human transferrin (hTf); experiment: isothermal titration calorimetry (VP-ITC); format: binding; details: 25 °C; 20 mM sodium phosphate pH 7.4; four-site fit, first site; large fit error, Ka4 printed negative; unreliable

T1 sequence (P02787 20-698): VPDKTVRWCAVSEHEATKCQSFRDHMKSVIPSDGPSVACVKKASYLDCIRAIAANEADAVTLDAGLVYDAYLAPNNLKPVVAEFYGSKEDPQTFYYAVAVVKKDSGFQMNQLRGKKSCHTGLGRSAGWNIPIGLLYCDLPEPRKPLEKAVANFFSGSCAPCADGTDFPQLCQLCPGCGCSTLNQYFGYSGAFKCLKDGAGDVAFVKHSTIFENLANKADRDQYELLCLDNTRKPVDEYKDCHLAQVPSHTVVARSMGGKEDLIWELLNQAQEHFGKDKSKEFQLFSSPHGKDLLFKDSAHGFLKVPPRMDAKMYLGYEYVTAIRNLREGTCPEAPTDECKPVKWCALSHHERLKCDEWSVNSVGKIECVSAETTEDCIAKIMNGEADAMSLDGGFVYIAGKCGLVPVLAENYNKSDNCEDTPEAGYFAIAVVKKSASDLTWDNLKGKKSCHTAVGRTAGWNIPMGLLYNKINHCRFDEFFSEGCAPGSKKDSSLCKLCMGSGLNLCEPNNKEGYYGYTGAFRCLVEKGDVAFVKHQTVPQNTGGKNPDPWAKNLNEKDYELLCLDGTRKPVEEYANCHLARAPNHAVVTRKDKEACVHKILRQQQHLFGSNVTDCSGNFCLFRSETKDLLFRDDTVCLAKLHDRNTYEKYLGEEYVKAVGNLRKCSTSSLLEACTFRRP

## O=C(/C=C/c1ccc(O)c(O)c1)O[C@H](Cc1ccc(O)c(O)c1)C(=O)O [Rosmarinic acid]
Human transferrin (hTf) [1]
  K (10^7 M^-1): 0.107 × 10^7 M^-1
Human transferrin (hTf) [2]
  Ka1: 115000 ± 81000 M⁻¹
